{
  "source": "patent US20220016092A1",
  "about": "“METHODS FOR TREATING SYMPTOMS AND DISORDERS ASSOCIATED WITH LYSOSOMAL STORAGE DISEASES” (GENZYME CORPORATION, priority 2019, published 2022)",
  "key": {"[1]": {"tested_on": "GM3 expression in B16 mouse melanoma cells", "test": "GM3 fluorescent-linked immunosorbent assay (FLISA), B16 cells", "format": "cell-based", "details": "48 hours", "description": "(§1) Inhibition of glucosylceramide synthase activity can be measured with one or more assays. A first assay is a microsomal assay that directly measures the conversion of ceramide to glucosylceramide by HPLC. Microsomes are a source of glucosylceramide synthase activity in the microsomal assay. A second assay is a cell based, phenotypic assay that monitors cell surface expression of the downstream lipid GM3 by antibody mediated immunofluorescence. Specific protocols are provided below.\n(§2) This is a phenotypic assay that measures GM3 expression in B16 mouse melanoma or C32 human melanoma cells following treatment with test compounds. Cell surface GM3 expression is determined by antibody mediated fluorescence.\n(§3) Compounds are diluted in media and plated in 384 well plates in DMSO. B16 and C32 cells are assayed at densities of 20,000 cells/ml and 62,500 cells/ml, respectively, per well. Each titration curve contains 10 points that are assayed in duplicate on each test run. The plates are incubated for 48 hours at 37° C., 5% CO2, and are then washed once with TBS. Anti-GM3 antibody is added to each well and the plates are then incubated for an additional one hour at room temperature. Plates are subsequently washed twice and incubated for an additional hour with the labeled secondary antibody. Following the final incubation, the plates are washed twice and the fluorescence at λex=D640/20 nm and λem=657 nm is detected on a fluorescent reader.\n(§4) The results of the microsomal assays are expressed as “GCS IC50”, which represents the concentration of the compound causing 50% inhibition of glucosylceramide synthase activity. The results of the cell-based assays are expressed as “GM3 B16 IC50” or “GM3 C32 IC50” for the B16 assay and the C32 assay, respectively. These values represent the concentration of the compound causing 50% inhibition of GM3 expression on the cell surface."}, "[2]": {"tested_on": "GM3 expression in C32 human melanoma cells", "test": "GM3 fluorescent-linked immunosorbent assay (FLISA), C32 cells", "format": "cell-based", "details": "48 hours", "description": "as §1, §2, §3, §4"}, "[3]": {"tested_on": "GL-3, lyso-GL-3, GL-1 and GM3", "details": "Fabry patients of the historical phase 3 trial (Eng et al. 2001), matched; after 156 weeks; cited from earlier work"}},
  "data": [
    {"molecule": "CC(C)(NC(=O)OC1CN2CCC1CC2)c1cccc(-c2ccc(F)cc2)c1", "note": "(stereo not drawn) [Compound 1, 1-azabicyclo[2.2.2]oct-3-yl[2-(4′-fluorobiphenyl-3-yl)propan-2-yl]carbamate]", "values": [
      {"measurement": "IC50", "setting": "[1]", "value": 15.6, "unit": "nM"},
      {"measurement": "IC50", "setting": "[2]", "value": 2.1, "unit": "nM"}
    ]},
    {"molecule": "COCCOc1ccc(-c2ccc(C(C)(C)NC(=O)O[C@@H]3CN4CCC3CC4)cc2)cc1", "note": "[Compound 3, (S)-quinuclidin-3-yl(2-(4′-(2-methoxyethoxy)-[1,1′-biphenyl]-4-yl)propan-2-yl)carbamate]", "values": [
      {"measurement": "IC50", "setting": "[1]", "value": 43.7, "unit": "nM"},
      {"measurement": "IC50", "setting": "[2]", "value": 1.31, "unit": "nM"}
    ]},
    {"molecule": "CC(C)(NC(=O)OC1CN2CCC1CC2)c1cccc(-c2ccccc2)c1", "note": "(stereo not drawn) [Compound 4, 1-azabicyclo[2.2.2]oct-3-yl[2-(biphenyl-3-yl)propan-2-yl]carbamate]", "values": [
      {"measurement": "IC50", "setting": "[1]", "value": 11.6, "unit": "nM"},
      {"measurement": "IC50", "setting": "[2]", "value": 0.8, "unit": "nM"}
    ]},
    {"molecule": "CC(C)(NC(=O)O[C@@H]1CN2CCC1CC2)c1ccc(-c2ccccc2)cc1", "note": "[Compound 5, (S)-quinuclidin-3-yl 2-(biphenyl-4-yl)propan-2-ylcarbamate]", "values": [
      {"measurement": "IC50", "setting": "[1]", "value": 19.3, "unit": "nM"},
      {"measurement": "IC50", "setting": "[2]", "value": 0.3, "unit": "nM"}
    ]},
    {"molecule": "O=C(NC1(c2ccc(-c3ccccc3)cc2)CC1)OC1CN2CCC1CC2", "note": "(stereo not drawn) [Compound 6, Quinuclidin-3-yl 1-(biphenyl-4-yl)cyclopropylcarbamate]", "values": [
      {"measurement": "IC50", "setting": "[1]", "value": 18.1, "unit": "nM"},
      {"measurement": "IC50", "setting": "[2]", "value": 0.6, "unit": "nM"}
    ]},
    {"molecule": "O=C(NC1(c2ccc(-c3ccc(F)cc3)cc2)CC1)O[C@@H]1CN2CCC1CC2", "note": "[Compound 7, (S)-quinuclidin-3-yl 1-(4′-fluorobiphenyl-4-yl)cyclopropylcarbamate]", "values": [
      {"measurement": "IC50", "setting": "[1]", "value": 8.1, "unit": "nM"},
      {"measurement": "IC50", "setting": "[2]", "value": 0.4, "unit": "nM"}
    ]},
    {"molecule": "O=C(NC1(c2ccc(-c3ccc(F)cc3F)cc2)CC1)O[C@@H]1CN2CCC1CC2", "note": "[Compound 8, (S)-1-azabicyclo[2.2.2]oct-3-yl[1-(2′,4′-difluorobiphenyl-4-yl)cyclopropyl]carbamate]", "values": [
      {"measurement": "IC50", "setting": "[1]", "value": 7.5, "unit": "nM"},
      {"measurement": "IC50", "setting": "[2]", "value": 0.4, "unit": "nM"}
    ]},
    {"molecule": "COc1ccc(-c2ccc(C3(NC(=O)OC4CN5CCC4CC5)CC3)cc2)cc1", "note": "(stereo not drawn) [Compound 9, 1-azabicyclo[2.2.2]oct-3-yl[1-(4′-methoxybiphenyl-4-yl)cyclopropyl]carbamate]", "values": [
      {"measurement": "IC50", "setting": "[1]", "value": 16.8, "unit": "nM"},
      {"measurement": "IC50", "setting": "[2]", "value": 0.4, "unit": "nM"}
    ]},
    {"molecule": "CC(C)(NC(=O)OC1CN2CCC1CC2)c1csc(-c2ccc(F)cc2)c1", "note": "(stereo not drawn) [Compound 10, Quinuclidin-3-yl 2-(5-(4-fluorophenyl)thiophen-3-yl)propan-2-ylcarbamate]", "values": [
      {"measurement": "IC50", "setting": "[1]", "value": 21.3, "unit": "nM"},
      {"measurement": "IC50", "setting": "[2]", "value": 2.2, "unit": "nM"}
    ]},
    {"molecule": "CC(C)(NC(=O)O[C@@H]1CN2CCC1CC2)c1cc(-c2ccc(F)cc2)ns1", "note": "[Compound 11, (S)-quinuclidin-3-yl 2-(3-(4-fluorophenyl)isothiazol-5-yl)propan-2-ylcarbamate]", "values": [
      {"measurement": "IC50", "setting": "[1]", "value": 81.9, "unit": "nM"},
      {"measurement": "IC50", "setting": "[2]", "value": 1.8, "unit": "nM"}
    ]},
    {"molecule": "CC(C)(NC(=O)O[C@@H]1CN2CCC1CC2)c1nc(-c2ccc(F)cc2)cs1", "note": "[Compound 12, (S)-quinuclidin-3-yl 2-(4-(4-fluorophenyl)thiazol-2-yl)propan-2-ylcarbamate]", "values": [
      {"measurement": "IC50", "setting": "[1]", "value": 87.8, "unit": "nM"},
      {"measurement": "IC50", "setting": "[2]", "value": 3.7, "unit": "nM"}
    ]},
    {"molecule": "COCCOc1ccc(-c2ccc(C(C)(C)NC(=O)OC3CN4CCC3CC4)cc2)cc1", "note": "(stereo not drawn) [Compound 13, Quinuclidin-3-yl(2-(4′-(2-methoxyethoxy)-[1,1′-biphenyl]-4-yl)propan-2-yl)carbamate]", "values": [
      {"measurement": "IC50", "setting": "[1]", "value": 38.6, "unit": "nM"},
      {"measurement": "IC50", "setting": "[2]", "value": 0.7, "unit": "nM"}
    ]},
    {"molecule": "COCCOc1cccc(-c2ccc(C(C)(C)NC(=O)O[C@@H]3CN4CCC3CC4)cc2)c1", "note": "[Compound 14, (S)-quinuclidin-3-yl(2-(3′-(2-methoxyethoxy)-[1,1′-biphenyl]-4-yl)propan-2-yl)carbamate]", "values": [
      {"measurement": "IC50", "setting": "[1]", "value": 110, "unit": "nM"},
      {"measurement": "IC50", "setting": "[2]", "value": 5.3, "unit": "nM"}
    ]},
    {"molecule": "COCCOc1ccc(-c2cccc(C(C)(C)NC(=O)OC3CN4CCC3CC4)c2)cc1", "note": "(stereo not drawn) [Compound 15, Quinuclidin-3-yl(2-(4′-(2-methoxyethoxy)-[1,1′-biphenyl]-3-yl)propan-2-yl)carbamate]", "values": [
      {"measurement": "IC50", "setting": "[1]", "value": 29.5, "unit": "nM"},
      {"measurement": "IC50", "setting": "[2]", "value": 4.9, "unit": "nM"}
    ]},
    {"molecule": "COCCCOc1ccc(-c2ccc(C(C)(C)NC(=O)OC3CN4CCC3CC4)cc2)cc1", "note": "(stereo not drawn) [Compound 16, Quinuclidin-3-yl(2-(4′-(3-methoxypropoxy)-[1,1′-biphenyl]-4-yl)propan-2-yl)carbamate]", "values": [
      {"measurement": "IC50", "setting": "[1]", "value": 66.6, "unit": "nM"},
      {"measurement": "IC50", "setting": "[2]", "value": 1.6, "unit": "nM"}
    ]},
    {"molecule": "CC(C)(NC(=O)OC1CN2CCC1CC2)c1ccc(-c2ccc(CO)cc2)cc1", "note": "(stereo not drawn) [Compound 17, Quinuclidin-3-yl(2-(4′-(hydroxymethyl)-[1,1′-biphenyl]-4-yl)propan-2-yl)carbamate]", "values": [
      {"measurement": "IC50", "setting": "[1]", "value": 879, "unit": "nM"},
      {"measurement": "IC50", "setting": "[2]", "value": 21.6, "unit": "nM"}
    ]},
    {"molecule": "CC(C)(NC(=O)OC1CN2CCC1CC2)c1ccc(-c2ccc(CCO)cc2)cc1", "note": "(stereo not drawn) [Compound 18, Quinuclidin-3-yl(2-(4′-(2-hydroxyethyl)-[1,1′-biphenyl]-4-yl)propan-2-yl)carbamate]", "values": [
      {"measurement": "IC50", "setting": "[1]", "value": 656, "unit": "nM"},
      {"measurement": "IC50", "setting": "[2]", "value": 22.3, "unit": "nM"}
    ]},
    {"molecule": "COCCCOc1ccc(-c2nc(C(C)(C)NC(=O)OC3CN4CCC3CC4)cs2)cc1", "note": "(stereo not drawn) [Compound 19, Quinuclidin-3-yl(2-(2-(4-(3-methoxypropoxy)phenyl)thiazol-4-yl)propan-2-yl)carbamate]", "values": [
      {"measurement": "IC50", "setting": "[1]", "value": 197, "unit": "nM"},
      {"measurement": "IC50", "setting": "[2]", "value": 42.6, "unit": "nM"}
    ]},
    {"molecule": "COCCOc1ccc(-c2nc(C(C)(C)NC(=O)OC3CN4CCC3CC4)cs2)cc1", "note": "(stereo not drawn) [Compound 20, Quinuclidin-3-yl(2-(2-(4-(2-methoxyethoxy)phenyl)thiazol-4-yl)propan-2-yl)carbamate]", "values": [
      {"measurement": "IC50", "setting": "[1]", "value": 106, "unit": "nM"},
      {"measurement": "IC50", "setting": "[2]", "value": 19.8, "unit": "nM"}
    ]},
    {"molecule": "COCCOc1ccc(-c2ccc(C(C)(C)NC(=O)OC3CN4CCC3CC4)nc2)cc1", "note": "(stereo not drawn) [Compound 21, Quinuclidin-3-yl 2-(5-(4-(2-methoxyethoxy)phenyl)pyridin-2-yl)propan-2-ylcarbamate]", "values": [
      {"measurement": "IC50", "setting": "[1]", "value": 266, "unit": "nM"},
      {"measurement": "IC50", "setting": "[2]", "value": 11.1, "unit": "nM"}
    ]},
    {"molecule": "CC(C)(NC(=O)OC1CN2CCC1CC2)c1ccc(-c2ccc(OCCCC#N)cc2)cc1", "note": "(stereo not drawn) [Compound 22, Quinuclidin-3-yl(2-(4′-(3-cyanopropoxy)-[1,1′-biphenyl]-4-yl)propan-2-yl)carbamate]", "values": [
      {"measurement": "IC50", "setting": "[1]", "value": 86.5, "unit": "nM"},
      {"measurement": "IC50", "setting": "[2]", "value": 3.2, "unit": "nM"}
    ]},
    {"molecule": "CC(C)(NC(=O)OC1CN2CCC1CC2)c1ccc(-c2ccc(OCC#N)cc2)cc1", "note": "(stereo not drawn) [Compound 23]", "values": [
      {"measurement": "IC50", "setting": "[1]", "value": 47.7, "unit": "nM"},
      {"measurement": "IC50", "setting": "[2]", "value": 0.8, "unit": "nM"}
    ]},
    {"molecule": "agalsidase beta: historical control arm: patients treated with agalsidase beta (Fabrazyme) in a previously completed placebo-controlled phase 3 trial (protein, UniProt P06280 32-429, looked up, agalsidase beta, historical control arm: patients treated with agalsidase beta (Fabrazyme) in a previously completed placebo-controlled phase 3 trial) Alpha-galactosidase A: LDNGLARTPTMGWLHWERFMCNLDCQEEPDSCISEKLFMEMAELMVSEGWKDAGYEYLCIDDCWMAPQRDSEGRLQADPQRFPHGIRQLANYVHSKGLKLGIYADVGNKTCAGFPGSFGYYDIDAQTFADWGVDLLKFDGCYCDSLENLADGYKHMSLALNRTGRSIVYSCEWPLYMWPFQKPNYTEIRQYCNHWRNFADIDDSWKSIKSILDWTSFNQERIVDVAGPGGWNDPDMLVIGNFGLSWNQQVTQMALWAIMAAPLFMSNDLRHISPQAKALLQDKDVIAINQDPLGKQGYQLRQGDNFEVWERPLSGLAWAVAMINRQEIGGPRSYTIAVASLGKGVACNPACFITQLLPVKRKLGFYEWTSRLRSHINPTGTVLLQLENTMQMSLKDLL", "values": [
      {"measurement": "Plasma GL-3 levels", "setting": "[3]", "value": 4.44, "unit": "µg/mL"}
    ]}
  ]
}
